Reference: US11103509B2 (University of Kentucky Research Foundation, priority 2018, dated 2021)
Entries after “also recorded” stand apart in the source; their conditions may differ. Read-outs that look alike come from different tables or passages of the source.

What was measured:
pain in cancer patients [1] = test: clinical data mining: pain complaints in phase III clinical trial NCT00490139; type: in vivo, human; conditions: compared to patients given only trastuzumab (FIG. 5)
Description: (§1) All p values on the differences between groups were calculated using χ^2 tests on GraphPad Prism 6.0. Confidence interval was set at 95%. […] Barnard's tests or Fisher's tests were not chosen due to the large sample size and Yate's correction on χ^2 tests was not adopted due to the same reason.

pain in cancer patients [2] = test: clinical data mining: patients complaining about pain in lapatinib clinical trials; type: in vivo, human; parameters: Pain decreased compared to control group (%): Arthralgia / Pain decreased compared to control group (%): Musculoskeletal Pain / Pain decreased compared to control group (%): Headache / Pain decreased compared to control group (%): Oral pain / Pain decreased compared to control group (%): Pain-overall / Pain decreased compared to control group (%): Myalgia: concentration or dose not given beside the values
Description: The “other adverse events” part of the clinical report was analyzed.
In particular, all of the data from clinical trials NCT00424255, NCT00390455, NCT00371566, and NCT00374322 was collected together as a larger dataset.
as §1

[3] = human, read-out: Cmax (μM) in plasma, cited from earlier work
pain in cancer patients [4] = conditions: cited from earlier work
[5] = test system: pain symptoms in inflammatory breast cancer patients; conditions: lapatinib monotherapy, n=17, not statistically significant (p>0.05); cited from earlier work
human mPGES-1 [6] = biological target: T1, human mPGES-1 (Homo sapiens, UniProt O14684); test: in vitro inhibitory activity against human mPGES-1 (PGE2 enzyme immunoassay); type: biochemical; conditions: lapatinib constant 1 μM, GSH at different concentrations (FIG. 3D)
T1 construct: made in house
T1 sequence (O14684 1-152): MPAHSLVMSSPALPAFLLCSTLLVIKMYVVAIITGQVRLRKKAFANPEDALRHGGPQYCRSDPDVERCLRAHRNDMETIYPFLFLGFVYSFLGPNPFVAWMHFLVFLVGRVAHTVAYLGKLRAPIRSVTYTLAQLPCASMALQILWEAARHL

pain in cancer patients [7] = conditions: NCT00490139 Group III: oral lapatinib 1500 mg daily, 52 weeks; cited from earlier work
human mPGES-1 [8] = biological target: T1, human mPGES-1; test: in vitro inhibitory activity against human mPGES-1 (PGE2 enzyme immunoassay); type: biochemical
Description: The above computational predictions were followed by in vitro activity assays for their actual inhibitory activity against human mPGES-1 using an ELISA assay previously-described.^16-17, 19 Specifically, a total of 18 FDA-approved drugs were assayed for their inhibitory activity against human mPGES-1.
The protocol for the protein preparation and in vitro activity assays were the same as described previously.^69-72 The enzyme activity assays were performed on ice in 1.5 ml microfuge tubes by using the expressed human mPGES-1. The reaction mixture contained: 0.2 M Na2HPO4/NaH2PO4, pH 7.2, 10 μL; 0.1 M GSH, 2.5 μL; diluted microsomal enzyme (80 μg/mL), 1 μL; PGH2 (0.31 mM in DMF), 5 μL; 1 μL inhibitor; and H2O in a final reaction volume of 100 μL. PGH2 was stored in dry ice and used to initiate the reaction. Compounds were incubated with the enzyme for 15 min at room temperature before the addition of cold PGH2 (1 μM final) to initiate the enzyme reaction. After 30 s, 10 μL of SnCl2 (40 mg/mL) in ethanol was added to stop the reaction. The non-enzymatic conversion of PGH2 to PGE2 was performed in the same buffer devoid of enzyme. The reaction mixture was placed on ice until PGE2 production was determined by the PGE2 enzyme immunoassay as described earlier. IC50 values of the inhibitors were calculated by using the GraphPad Prism 6.0.

[9] = all individual pains added, four trials
[10] = combined NCT00374322, NCT00390455
[11] = combined NCT00374322, NCT00390455, NCT00424255, NCT00371566
[12] = combined NCT00390455, NCT00424255
[13] = combined NCT00424255, NCT00371566
[14] = combined nine trials (footnote e)
[15] = NCT00371566, with drug total 69
[16] = NCT00374322, with drug total 1573
[17] = NCT00390455, with drug total 141
[18] = NCT00424255, with drug total 349

Question: For CS(=O)(=O)CCNCc1ccc(-c2ccc3ncnc(Nc4ccc(OCc5cccc(F)c5)c(Cl)c4)c3c2)o1 [lapatinib], which “pain relief in NCT00490139 (in words)” value (pain in cancer patients [1]) is on record?
Answer: The value was “significantly relive all types of pain (p<0.05), except for the back pain”.

Question: What about the “# of patients complaining pain/# of patients given lapatinib, Counts: Pain-overall” value (pain in cancer patients [2]; [9]) of the same compound?
Answer: Its value is 304/4754.

Question: And the “patients complaining pain, Percentage (%): Pain-overall” value (pain in cancer patients [2]; [9])?
Answer: The value was 6.39%.

Question: What about the “Pain decreased compared to control group (%): Pain-overall” value (pain in cancer patients [2]; all individual pains added, four trials, control drugs or placebo) of the same compound?
Answer: Its value is 28.00%.

Question: And the “# of patients complaining pain/# of patients given lapatinib, Counts: Arthralgia” value (pain in cancer patients [2]; [10])?
Answer: Its value is 72/1714.

Question: What about the “patients complaining pain, Percentage (%): Arthralgia” value (pain in cancer patients [2]; [10]) of the same compound?
Answer: Its value is 4.20%.

Question: What about the “# of patients complaining pain/# of patients given lapatinib, Counts: Headache” value (pain in cancer patients [2]; [11]) of the same compound?
Answer: Its value is 182/2132.

Question: What about the “patients complaining pain, Percentage(%): Headache” value (pain in cancer patients [2]; [11]) of the same compound?
Answer: The value was 8.54%.

Question: What about the “Pain decreased compared to control group (%): Headache” value (pain in cancer patients [2]; combined NCT00374322, NCT00390455, NCT00424255, NCT00371566, control drugs or placebo) of the same compound?
Answer: Its value is 23.02%.

Question: And the “Pain decreased compared to control group (%): Arthralgia” value (pain in cancer patients [2]; combined NCT00374322, NCT00390455, control drugs or placebo)?
Answer: The value was 39.60%.

Question: What about the “# of patients complaining pain/# of patients given lapatinib, Counts: Musculoskeletal Pain” value (pain in cancer patients [2]; [12]) of the same compound?
Answer: Its value is 15/490.

Question: What about the “patients complaining pain, Percentage (%): Musculoskeletal Pain” value (pain in cancer patients [2]; [12]) of the same compound?
Answer: Its value is 3.06%.

Question: And the “Pain decreased compared to control group (%): Musculoskeletal Pain” value (pain in cancer patients [2]; combined NCT00390455, NCT00424255, control drugs or placebo)?
Answer: The value was 39.67%.

Question: And the “# of patients complaining pain/# of patients given lapatinib, Counts: Oral pain” value (pain in cancer patients [2]; [13])?
Answer: Its value is 35/418.

Question: What about the “patients complaining pain, Percentage (%): Oral pain” value (pain in cancer patients [2]; [13]) of the same compound?
Answer: The value was 8.37%.

Question: What about the “Pain decreased compared to control group (%): Oral pain” value (pain in cancer patients [2]; combined NCT00424255, NCT00371566, control drugs or placebo) of the same compound?
Answer: Its value is 18.03%.

Question: What about the “# of patients complaining pain/# of patients given lapatinib, Counts: Myalgia” value (pain in cancer patients [2]; [14]) of the same compound?
Answer: The value was 321/3314.

Question: What about the “patients complaining pain, Percentage (%): Myalgia” value (pain in cancer patients [2]; [14]) of the same compound?
Answer: The value was 9.69%.

Question: And the “Pain decreased compared to control group (%): Myalgia” value (pain in cancer patients [2]; combined nine trials (footnote e), control drugs or placebo)?
Answer: Its value is 14.02%.

Question: What about the “overall pain relief (in words)” value (pain in cancer patients [2]; pain-overall category, combined trials, p<0.05) of the same compound?
Answer: The value was “significantly relieve pain in cancer patients”.

Question: What about the Cmax ([3]; 1250 mg orally once daily, trial NCT00477464) of the same compound?
Answer: The Cmax was 6.06 µM.

Question: What about the Cmax ([3]; 1500 mg (6 pills at 250 mg) once oral daily, trials NCT00486954 and NCT01138046, average Cmax) of the same compound?
Answer: The Cmax was 8.6 µM.

Question: What about the Cmax ([3]; dose 10 mg, GW572016 ditosylate monohydrate oral suspension (Bence et al.)) of the same compound?
Answer: The Cmax was 0.019 µM.

Question: What about the Cmax ([3]; dose 25 mg, GW572016 ditosylate monohydrate oral suspension (Bence et al.)) of the same compound?
Answer: The Cmax was 0.04 µM.

Question: What about the Cmax ([3]; dose 50 mg, GW572016 ditosylate monohydrate oral suspension (Bence et al.)) of the same compound?
Answer: Its Cmax is 0.124 µM.

Question: And the Cmax ([3]; dose 100 mg, GW572016 ditosylate monohydrate oral suspension (Bence et al.))?
Answer: Its Cmax is 0.213 µM.

Question: And the Cmax ([3]; dose 175 mg, GW572016 ditosylate monohydrate oral suspension (Bence et al.))?
Answer: The Cmax was 0.38 µM.

Question: What about the Cmax ([3]; dose 250 mg, GW572016 ditosylate monohydrate oral suspension (Bence et al.)) of the same compound?
Answer: The Cmax was 0.546 µM.

Question: And the Cmax ([3]; dose 500 mg, tablets, daily oral, trial EGF10004)?
Answer: Its Cmax is 1.76 µM.

Question: What about the Cmax ([3]; dose 650 mg, tablets, daily oral, trial EGF10004) of the same compound?
Answer: Its Cmax is 2.24 µM.

Question: And the Cmax ([3]; dose 1000 mg, tablets, daily oral, trial EGF10004)?
Answer: Its Cmax is 3.18 µM.

Question: What about the “Headache, With drug pains” value (pain in cancer patients [4]; [15]) of the same compound?
Answer: The value was 3.

Question: And the “Oral pain, With drug pains” value (pain in cancer patients [4]; [15])?
Answer: The value was 10.

Question: And the “patients reporting arthralgia / patients in lapatinib group” value (pain in cancer patients [4]; NCT00374322, vs placebo 113/1574)?
Answer: Its value is 69/1573.

Question: What about the “patients reporting headache / patients in lapatinib group” value (pain in cancer patients [4]; NCT00374322, vs placebo 185/1574) of the same compound?
Answer: Its value is 140/1573.

Question: And the “Arthralgia, With drug pains” value (pain in cancer patients [4]; [16])?
Answer: Its value is 69.

Question: What about the “Headache, With drug pains” value (pain in cancer patients [4]; [16]) of the same compound?
Answer: The value was 140.

Question: What about the “Arthralgia, With drug pains” value (pain in cancer patients [4]; [17]) of the same compound?
Answer: The value was 3.

Question: And the “Back Pain, With drug pains” value (pain in cancer patients [4]; [17])?
Answer: Its value is 5.

Question: What about the “Bone Pain, With drug pains” value (pain in cancer patients [4]; [17]) of the same compound?
Answer: Its value is 3.

Question: What about the “Headache, With drug pains” value (pain in cancer patients [4]; [17]) of the same compound?
Answer: Its value is 19.

Question: What about the “Musculoskeletal Pain, With drug pains” value (pain in cancer patients [4]; [17]) of the same compound?
Answer: Its value is 0.

Question: What about the “Pain In Extremity, With drug pains” value (pain in cancer patients [4]; [17]) of the same compound?
Answer: Its value is 1.

Question: What about the “Pain-chest/thorax, With drug pains” value (pain in cancer patients [4]; [17]) of the same compound?
Answer: Its value is 1.

Question: And the “Headache, With drug pains” value (pain in cancer patients [4]; [18])?
Answer: Its value is 20.

Question: What about the “Musculoskeletal Pain, With drug pains” value (pain in cancer patients [4]; [18]) of the same compound?
Answer: Its value is 15.

Question: What about the “Oral pain, With drug pains” value (pain in cancer patients [4]; [18]) of the same compound?
Answer: The value was 25.

Question: And the “relief from symptoms including pain (in words)” value [5]?
Answer: Its value is “provide relief from symptoms, including pain, in the short term”.

Question: And the “competition with co-factor GSH” value (human mPGES-1 [6])?
Answer: The value was “competes with co-factor GSH; also recorded: GSH-competitive inhibitor”.

Question: What about the “Arthralgia, Patient counts” value (pain in cancer patients [7]) of the same compound?
Answer: Its value is 290/2057.

Question: What about the “Arthralgia, patient percentage” value (pain in cancer patients [7]) of the same compound?
Answer: The value was “(14.10%)”.

Question: And the “Back Pain, patient percentage” value (pain in cancer patients [7])?
Answer: The value was “(5.79%)”.

Question: And the “Bone Pain, Patient counts” value (pain in cancer patients [7])?
Answer: The value was 91/2057.

Question: And the “Bone Pain, patient percentage” value (pain in cancer patients [7])?
Answer: The value was “(4.42%)”.

Question: What about the “Headache, Patient counts” value (pain in cancer patients [7]) of the same compound?
Answer: The value was 161/2057.

Question: What about the “Headache, patient percentage” value (pain in cancer patients [7]) of the same compound?
Answer: The value was “(7.83%)”.

Question: What about the “Musculoskeletal pain, Patient counts” value (pain in cancer patients [7]) of the same compound?
Answer: The value was 70/2057.

Question: What about the “Musculoskeletal pain, patient percentage” value (pain in cancer patients [7]) of the same compound?
Answer: Its value is “(3.40%)”.

Question: What about the “Pain in Extremity, Patient counts” value (pain in cancer patients [7]) of the same compound?
Answer: The value was 99/2057.

Question: And the “Pain in Extremity, patient percentage” value (pain in cancer patients [7])?
Answer: Its value is “(4.81%)”.

Question: What about the IC50 (human mPGES-1 [8]) of the same compound?
Answer: The IC50 was 800 nM.
